Data taken from publication PMC6261607, “Novel high–throughput myofibroblast assays identify agonists with therapeutic potential in pulmonary fibrosis that act via EP2 and EP4 receptors” (PLoS ONE, 2018).
Structures can show the parent of a compound that is named as a salt. Where two headings read alike, the source gives them in different places.

Legend:
[1] = tested on: normal human lung fibroblasts (NHLF); test: Phenotypic high-content assay (HCA) of TGF–β1–induced fibroblast–to–myofibroblast differentiation; type: cell-based; settings: for IC50: read-out: HCA IC50; for inhibition at 10 µM: read-out: Effect HCA at 10 µM [% inhibition]
Procedure: (§1) The plate was washed 3 times with starvation medium, e.g. fibroblast basal medium (FBM, Lonza) supplemented with 0.1% faf BSA, 100 units / ml of penicillin and 100 μg / ml of streptomycin and 250 ng / ml amphotericin B, and then starved for 24 h in 30 μl volume. NHLF were differentiated into myofibroblasts by incubation with 5 ng / ml TGF–β1 (from a stock of 20 μg / ml in 4 mM HCl, 1 mg / ml BSA) for 48 h. Compounds were prepared as 5x stocks in starvation medium and added to the starved cells to a final 1x concentration concomitant with TGF–β1 addition. The final DMSO concentration in the assay was 0.6% in all wells. 48 h after TGF–β1 addition, the medium was removed and the cells were fixed in methanol for 10 min at room temperature (RT). After fixation, cells were washed 3 times with 1 x PBS and either stored at 4°C for up to 3 days or further processed. […] Images were acquired on the Opera Phenix confocal high–content screening system (Perkin Elmer) using the 20–x water immersion lens.
(§2) DAPI stained nuclei were used to identify cells. α–SMA and FN regions were then identified and mapped to the corresponding nuclei for background correction, cell segmentation and cell feature computation to identify, classify and weigh over 400 features per cell. The computed features (S1 Table) comprise, but are not limited to, granularity, intensity, texture, area, shape and solidity of a cell in both α–SMA–and FN–expressing regions. The 0% compound effect (5 ng / ml TGF–β1) and the 100% compound effect (0 ng / ml TGF–β1) controls, were used to train and validate a support vector machine (SVM), a supervised learning model with associated learning algorithm that, once successfully validated, was applied to every cell in every well of the assayed microtiter plate. The SVM allowed autonomous weighting and classification of the characteristics and thus enabled the classifier to decide which characteristics were most relevant for the differentiation of the cell types. […] The classification of each cell was aggregated to a cell type ratio per well, represented as the computed percentage effect value per well indicative of the degree of myofibroblast differentiation. E.g. 100% equals complete myofibroblast differentiation, 0% indicates a pure fibroblast population without any signs of differentiation.

[2] = tested on: normal human lung fibroblasts (NHLF); test: Impedance measurement of TGF–β1–induced myofibroblast transition (IPQA), standard assay; type: cell-based; settings: 5 ng/ml TGF–β1, compound added with TGF–β1, impedance at t = 20 h post TGF–β1, mean ± SD, read-out: Impedance IC50
Procedure: To measure dynamic cell shape and adhesion changes during fibrotic transdifferentiation, NHLF were seeded at a density of 20,000 cells per well in FGM–2 growth medium (Lonza) containing 100 units / ml of penicillin and 100 μg / ml of streptomycin into E–plates with continued impedance signal measurement (xCELLigence system, Roche Applied Science). After overnight growth, the medium was exchanged for FBM (Lonza) supplemented with 100 units / ml of penicillin and 100 μg / ml of streptomycin and 0.1% faf BSA and cells were starved for 32 h. Compound dilution series were added and myofibroblast transition was induced by adding TGF–β1 at a concentration of 5 ng / ml, followed by continued impedance sampling for up to 48 h. For data analysis, impedance raw traces were normalized to the time point of compound addition and the baseline response (DMSO, non–TGF–β1 treated cells) was subtracted. In some cases, impedance values at defined time points were used to generate concentration–response curves to determine compound potency and efficacy using GraphPad Prism software version 7 (GraphPad Software Inc).

[3] = tested on: α–SMA protein in NHLF cells; test: RapidFire MS/MS quantification of α–SMA (IPQA), standard assay; type: cell-based, human; settings: NHLF, 5 ng/ml TGF–β1, lysed 48 h after TGF–β1, normalized to tubulin, mean ± SD, read-out: MS / MS α–SMA IC50
Procedure: (§3) Cell culture medium was removed and cells were lysed on ice by adding 5 μl / well of pre–cooled protein extraction buffer containing 10 mM Tris–HCl (pH 8.0), 6 M urea and 2 M thiourea and shaking on ice on a plate shaker at 600 rpm for 30 min.
(§4) Cell lysate was transferred to a 96–well polypropylene–PCR–plate. 15 μl / well denaturation buffer (6 M urea, 50 mM ammonium bicarbonate) and 2 μl / well of 50 mM TCEP were added and samples were denatured for 1 h at 60°C using the Veriti 96–well Fast Thermal Cycler System (Applied Biosystem) with a heated lid. Plates were allowed to cool to RT. Subsequently, 2 μl of 100 mM iodoacetamide were added per well to derivatize cysteine residues. Plates were then sealed and vortexed for 2 min in the dark and incubated for 30 min at 37°C in a thermal cycler with a heated lid. 90 μl of 50 mM ammonium bicarbonate pH 7.8 were added, followed by the addition of 10 μl of trypsin at 0.02 μg / ml. Samples were trypsin–digested overnight at 37°C in a thermal cycler with heated lid. […] Samples were desalted under vacuum using an Oasis HLB 96–well (30 μm particle size, 5 mg sorbent / well) reverse phase cartridge according to the manufacturer’s instructions and eluted with 170 μl of 90% acetonitrile, 0.1% formic acid. Samples were dried down with a flow of nitrogen at 40°C, left to cool to RT and re–suspended in 40 μl 5% acetonitrile, 0.1% formic acid on a plate shaker set to 1400 rpm for 5 min. Plates were centrifuged at 4,000 rpm for 10 min and 2 times 12 μl / well of supernatant were transferred into separate 96–well plates (Greiner Bio–One), sealed and stored at 4°C until analyzed by MS / MS.
(§5) Surrogate tryptic peptides were chosen for detection of COL1 (COL1A1), α–SMA (ACTA) and tubulin (TBA1A1) and crude synthetic peptides were purchased from Thermo Fischer. After several rounds of optimization following standard workflows, […] (COL1 / COL1A1), […] (α–SMA / ACTA) and […] LC–MS / MS analysis was performed on a RapidFire™ RF360 system (Agilent Technologies) coupled to an API 5500 (ABSciex) with positive ion electrospray ionization. […] Detection was performed using multiple reaction monitoring (MRM) mode to monitor parent⟶product ion transitions (m / z). […] The source parameters were curtain gas (CUR) nitrogen: 20 psig; collision gas (CAD): 7 psig; ion source gas 1: 50.0 psig; ion source gas 2: 50.0 psig; ion spray voltage (IS): 5500 V; turbo heater temperature (TEM): 600°C; entrance potential (EP): 10V. Peak areas for COL1A1 and ACTA were normalized by dividing by TBA1A peak area.

[4] = tested on: COL1 protein in NHLF cells; test: RapidFire MS/MS quantification of COL1 (IPQA), standard assay; type: cell-based, human; settings: NHLF, 5 ng/ml TGF–β1, lysed 48 h after TGF–β1, normalized to tubulin, mean ± SD, read-out: MS / MS COL1 IC50
Procedure: as §3, §4, §5

[5] = tested on: normal human lung fibroblasts (NHLF); test: Nuclear count in the HCA, standard assay; type: cell-based; settings: Homo sapiens, Fibroblast, read-out: Nuclear count IC50
Procedure: as §1, §2

NHLF cells = test: RealTime–Glo MT viability assay
Procedure: The effect of compounds on cell viability was assessed by quantifying the relative metabolic activity of cells using the non–lytic luminescence–based RealTime–Glo™ MT cell viability assay (Promega) according to the manufacturer’s instructions.

[6] = NHLF, 5 ng/ml TGF–β1 for 48 h, compound added with TGF–β1, mean ± SD
[7] = Homo sapiens, Fibroblast, 48 h, NHLF, 5 ng/ml TGF–β1 for 48 h, compound added with TGF–β1, mean ± SD
[8] = Homo sapiens, Fibroblast, 10 µM compound, 5 ng/ml TGF–β1, 48 h
[9] = 48 h, standard HCA, NHLF, 5 ng/ml TGF–β1, 48 h

SMILES	IC50 [1, 6]	IC50 [2]	IC50 [3]	IC50 [4]	IC50 [1, 7]	inhibition at 10 µM [1, 8]	IC50 [5, 9]	Effect on viability at 10 µM [% reduction] (NHLF cells; 10 µM compound)	further results
O=C(Nc1cccc(Nc2ncc(Br)c(NCCc3cnc[nH]3)n2)c1)N1CCCC1 [BX–912]	17 µM	7.5 µM	8.6 µM	8.7 µM					
Cc1cccc(-c2[nH]c(C(C)(C)C)nc2-c2ccc3nccnc3c2)n1 [SB525334]	2.5 µM	0.12 ± 0.025 µM	0.09 ± 0.005 µM	0.38 ± 0.11 µM					
O=c1cc(N2CCOCC2)oc2c(-c3ccccc3)cccc12 [LY294002]					2.4 µM				IC50 ([2]; Fibroblast): 13 µM; IC50 ([3]; Homo sapiens): 27 µM; IC50 ([4]; Homo sapiens, Col1, 48 h): 45 µM
COc1cccc(-c2cc(=O)c3ccccc3o2)c1N [PD98059]	> 46 µM	19 µM	50 µM	> 50 µM					
O=C(NCc1cccc(O)c1)Nc1nc(-c2ccncc2)cs1 [RKI 1447]	4.3 µM	8.4 µM	0.15 ± 0.022 µM	12.2 µM					
Cc1ccccc1-n1c(Cn2cnc3c(N)ncnc32)nc2cccc(C)c2c1=O [IC–87114]	44 µM	> 5 µM	> 5 µM	4.9 µM					
Oc1c2ccccc2c2c3c(cccc13)N=N2 [SP600125]					> 46 µM				IC50 ([2]; Fibroblast): 48.5 µM; IC50 ([3]; Homo sapiens): 38 µM; IC50 ([4]; Homo sapiens, Col1): 36 µM
COc1cc(O)c2c(c1)/C=C/C[C@H](O)[C@H](O)C(=O)/C=C\C[C@H](C)OC2=O [5Z–7–Oxozeaenol]	2.6 µM	0.25 ± 0.17 µM	0.3 ± 0.27 µM	0.46 ± 0.27 µM					
CCCCN(CCCC)CCC(O)c1cc2c(Cl)cc(Cl)cc2c2cc(C(F)(F)F)ccc12 (stereo not drawn) [Halofantrine hydrochloride]					6.02 µM	101%	5.2 µM	29 % reduction	
Nc1c2ccccc2nc2ccccc12 [Aminacrine]					6 µM	97%	24 µM	2 % reduction	
CN(C)Cc1cccc(N/C(=C2\C(=O)Nc3cc(C(=O)N(C)C)ccc32)c2ccccc2)c1 [BIX 02189]	22 µM	6 µM	14 µM	6.5 µM					
C=C(NC(=O)C(=C)NC(=O)c1csc(C2=N[C@@H]3c4csc(n4)[C@H]4NC(=O)c5csc(n5)[C@H]([C@](C)(O)[C@@H](C)O)NC(=O)[C@H]5CSC(=N5)/C(=C/C)NC(=O)[C@H]([C@@H](C)O)NC(=O)c5csc(n5)[C@]3(CC2)NC(=O)[C@H](C)NC(=O)C(=C)NC(=O)[C@H](C)NC(=O)[C@H]([C@@H](C)CC)N[C@@H]2C=Cc3c([C@H](C)O)cc(nc3[C@H]2O)C(=O)O[C@@H]4C)n1)C(N)=O [Thiostrepton]								–11 % reduction	inhibition at 10 µM ([1]; Homo sapiens, Fibroblast, 48 h): 85%; IC50 ([1]; Homo sapiens, Fibroblast, 48 h): 2.2 µM; IC50 ([5]; 48 h): 7.6 µM
COC(=O)Nc1nc2ccc(Sc3ccccc3)cc2[nH]1 [Fenbendazole]					6.7 µM	76%	5.8 µM		Effect on viability at 10 µM [% reduction] (NHLF cells; human, 10 µM): 51 % reduction
Clc1cc(Cl)c(OCC#CI)cc1Cl [Haloprogin]					1.3 µM	77%	4.5 µM	61 % reduction	
C[C@@H]1O[C@@H](O[C@@H]2C=C3CC[C@@H]4[C@H](CC[C@]5(C)[C@@H](c6ccc(=O)oc6)CC[C@]45O)[C@@]3(C)CC2)[C@H](O)[C@H](O)[C@H]1O [Proscillaridin A]						101%		12 % reduction	IC50 ([1]; Homo sapiens, Fibroblast, NHLF, 5 ng/ml TGF–β1 for 48 h, compound added with TGF–β1, mean ± SD): 0.001 µM; IC50 ([5]; standard HCA, NHLF, 5 ng/ml TGF–β1, 48 h): > 25 µM
CC[C@@]1(O)C(=O)OCc2c1cc1n(c2=O)Cc2cc3c(CN(C)C)c(O)ccc3nc2-1 [Topotecan]					0.97 µM	88%	> 25 µM		Effect on viability at 10 µM [% reduction] (NHLF cells; human, 10 µM): 8 % reduction
Cc1cc(N)c2ccccc2[n+]1CCCCCCCCCC[n+]1c(C)cc(N)c2ccccc21 [Dequalinium dichloride]					5.8 µM	67%	> 25 µM		Effect on viability at 10 µM [% reduction] (NHLF cells; human, 10 µM): 39 % reduction
C[C@@H]1O[C@@H](O[C@H]2C[C@@H](O)[C@]3(CO)[C@H]4[C@H](O)C[C@]5(C)[C@@H](C6=CC(=O)OC6)CC[C@]5(O)[C@@H]4CC[C@]3(O)C2)[C@H](O)[C@H](O)[C@H]1O [Ouabain]					0.012 µM	100%	> 25 µM	15 % reduction	
